Source: patent publication US8022091B2, “Triazole derivative” (Taisho Pharmaceutical Co., Ltd., priority 2006, dated 2011)

What was measured:
human Edg-1 (S1P1) = biological target: T1, human Edg-1 (S1P1) (Homo sapiens, UniProt P21453); assay: S1P1 binding assay: inhibition of [33P]-S1P binding to membrane fraction of HEK-293 cells transferred with the human Edg-1 (S1P1) gene; details: for IC50: [33P]-S1P 0.1 nM, human Edg-1 (S1P1) HEK-293 membrane fraction, 1 h at 30° C., read-out: IC50 (concentration at which binding in the absence of the test compound was inhibited by 50%)
T1 construct: expressed in transfected cells; host or cells: HEK-293
Method in brief: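 With 0.1 nM [33P]-S1P and compound (10^−5M single point, or a concentration range for IC50) in 0.1% DMSO, membrane fractions from human Edg-1-expressing HEK-293 cells were treated for one hour at 30° C in 20 mM Tris-HCl pH 7.4 with NaF, deoxypyridoxine and BSA. Bound label was measured after filtration, with untransfected-cell background subtracted.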

[1] = test compound at 10 μM, inhibition of [33P]-S1P binding to the membrane fraction of HEK-293 cells expressing human Edg-1 (S1P1)
[2] = test compound 10 μM, inhibition of [33P]-S1P binding, membrane fraction

T1 sequence (P21453 whole entry): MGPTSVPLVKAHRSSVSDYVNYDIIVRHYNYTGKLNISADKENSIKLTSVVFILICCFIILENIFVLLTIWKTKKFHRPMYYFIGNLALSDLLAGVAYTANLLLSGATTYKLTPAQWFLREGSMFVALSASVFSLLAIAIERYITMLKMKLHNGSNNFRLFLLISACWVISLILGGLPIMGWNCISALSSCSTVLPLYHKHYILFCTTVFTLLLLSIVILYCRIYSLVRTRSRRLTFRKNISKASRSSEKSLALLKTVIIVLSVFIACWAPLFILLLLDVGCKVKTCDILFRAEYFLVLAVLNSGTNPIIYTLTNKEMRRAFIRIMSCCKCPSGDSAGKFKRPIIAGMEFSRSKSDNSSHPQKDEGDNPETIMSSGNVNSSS

Compound	melting point [°C]	IC50 (human Edg-1 (S1P1)) [nM]	inhibition at 10 µM (human Edg-1 (S1P1); [1]) [%]	inhibition at 10 µM (human Edg-1 (S1P1); [2]) [%]	Binding assay (membrane) % inhibition (10 μM) (human Edg-1 (S1P1); test compound 10 μM, inhibition of [33P]-S1P binding, membrane fraction, 10 µM) [%]
CCn1c(Oc2cccc(NS(C)(=O)=O)c2)nnc1[C@@H](C)NS(=O)(=O)c1ccc2c(Cl)cccc2c1 [Compound 148]	154.5 to 155.5	1.9	102		
CCC(NS(=O)(=O)c1ccc(Cl)c(Cl)c1)c1nnc(Oc2ccc(C)cc2)n1CC (stereo not shown) [Compound 149]	212 to 214.5	7.8	101		
CCn1c(Oc2cccc(N3CCN(C(C)C)CC3)c2)nnc1[C@@H](C)NS(=O)(=O)c1ccc2c(Cl)cccc2c1 [Compound 663]	210 to 217	≤ 10		99.5	
CCn1c(Oc2cccc(N3CCN(C)CC3)c2)nnc1[C@@H](C)NS(=O)(=O)c1ccc2cc(Cl)ccc2c1 [Compound 664]	218 to 221.5			85.4	
CCn1c(Oc2cccc(N3CCN(C)CC3)c2)nnc1[C@@H](C)NS(=O)(=O)c1ccc2ccc(Cl)cc2c1 [Compound 665]	197 to 201	≤ 35		100	
CCn1c(Oc2cccc(N3CCN(C)CC3)c2)nnc1[C@@H](C)NS(=O)(=O)c1ccc2cccc(Cl)c2c1 [Compound 666]	143.5 to 144.5	≤ 10		97.9	
CCn1c(Oc2cccc(N3CCN(C)CC3)c2)nnc1[C@@H](C)NS(=O)(=O)c1ccc2c(Br)cccc2c1 [Compound 667]	207 to 208	≤ 10		99.2	
CCn1c(Oc2cccc(N3CCN(C(C)C)CC3)c2)nnc1[C@@H](C)NS(=O)(=O)c1ccc2cccc(Cl)c2c1 [Compound 669]	131.5 to 132.5	≤ 10		100	
CCn1c(Oc2ccc3cc[nH]c3c2)nnc1[C@@H](C)NS(=O)(=O)c1ccc2cccc(Cl)c2c1 [Compound 670]	214.5 to 218	5.2		101	
CCn1c(Oc2ccc(F)c(N3CCN(C)CC3)c2)nnc1[C@@H](C)NS(=O)(=O)c1ccc2c(Cl)cccc2c1 [Compound 680]	169.5 to 170.5	1.4		100	
CCn1c(Oc2ccc(F)c(N3CCN(C)CC3)c2)nnc1[C@@H](C)NS(=O)(=O)c1ccc(Cl)c(Cl)c1 [Compound 681]	189 to 189.5	≤ 10		100	
CCn1c(Oc2ccc(F)cc2)nnc1C(C)(C)NS(=O)(=O)c1ccc(Cl)c(Cl)c1 [Compound 682]	228 to 228.5			76.6	
CCn1c(Oc2cccc(N3CCNCC3)c2)nnc1[C@@H](C)NS(=O)(=O)c1ccc(Cl)c(Cl)c1 [Compound 683, 3,4-Dichloro-N-[(R)-1-[4-ethyl-5-(3-piperazin-1-yl-phenoxy)-4H-[1,2,4]triazol-3-yl]-ethyl]-benzenesulfonamide]	175 to 178	≤ 10		100	
CCn1c(Oc2ccc(F)cc2)nnc1C1(NS(=O)(=O)c2ccc(Cl)c(Cl)c2)CC1 [Compound 685]	255 to 260			65.1	
CCn1c(Oc2cccc(N3CCN(C)CC3)c2)nnc1C1(NS(=O)(=O)c2ccc(Cl)c(Cl)c2)CC1 [Compound 686]	220.5 to 221			92.7	
CCn1c(Oc2cccc(N3CCNCC3)c2)nnc1[C@@H](C)NS(=O)(=O)c1ccc2c(Cl)cccc2c1 [Compound 688]	192 to 193	1.5		100	
CCn1c(Oc2cccc(N3CCN(C)CC3)c2)nnc1[C@@H](C)NS(=O)(=O)c1ccc2c(I)cccc2c1 [Compound 690]	198 to 200	≤ 10		102	
CCn1c(Oc2cccc(N3CCN(C)CC3)c2)nnc1[C@@H](C)NS(=O)(=O)c1ccc2c(I)cccc2c1 [Compound 691]	180 to 182	2.6			98.5
CCn1c(Oc2cccc(N3CCN(C)CC3)c2)nnc1[C@@H](C)NS(=O)(=O)c1ccc2c(C#N)cccc2c1 [Compound 692]	227 to 229	5.1		98.5	
CCn1c(Oc2cccc(N3CCN(C)CC3)c2)nnc1[C@@H](C)NS(=O)(=O)c1ccc2c(S(C)(=O)=O)cccc2c1 [Compound 693]	158 to 161			97.7	
CCn1c(Oc2cccc(N3CCN(C)CC3)c2)nnc1[C@@H](C)NS(=O)(=O)c1ccc2c(Cl)ccc(Cl)c2c1 [Compound 694]	189 to 191	2.9		106	
